Test results: patent US20230372263A1, “METHODS AND COMPOSITIONS FOR TREATING AMYOTROPHIC LATERAL SCLEROSIS” (Amylyx Pharmaceuticals, Inc., priority 2022, published 2023)
Like-named read-outs stand apart in the source and are kept apart here.

What was measured:
[1] = Phase I single dose oral AMX0035 fasted/fed plasma pharmacokinetics and food effect (Protocol A35-002); format: in vivo, human; settings: for Frel AUC(0-inf) / Frel AUC(0-last) / Frel Cmax: fed relative to fasted
Experimental: • Protocol AMX3500: sparse sampling in 87 subjects with ALS. Approximately 2 samples are collected for each subject, 1 or 4 hours post dose following 12 and 24 weeks of treatment. • Protocol A35-002: rich sampling in 14 healthy adults. Approximately 21 samples are collected over 24 hours for each subject on two occasions, once following a high fat meal and the other under fasting conditions.
A total of 14 healthy subjects were enrolled in order to have no fewer than 12 subjects complete. A predefined mix of gender was selected.
Each study period followed the same study design (FIG. 1). Subjects were screened for inclusion in the study up to 28 days before dosing. Subjects were admitted to the clinical unit during Study Day −2 for Period 1 and Day −1 for Period 2 and were dosed in the morning of Day 1. On the night prior to Period 1 the subjects in the fasted/fed or fed/fasted sequence were fasted for a minimum of 10 h prior to dosing.
The solution was stirred until the powder was mostly dissolved.
Any departures from the intended regimen were recorded in the eCRFs. All dose administrations were performed in the study center under the supervision of appropriately trained staff.
Subjects were provided with a light snack and were then fasted from all food and drink (except water) until the following morning, when they were provided with a high-fat breakfast. The breakfast was consumed over a maximum period of 25 min, and dosing occurred 30 min after the start of breakfast. Subjects were encouraged to eat their meal evenly over the 25 min period. For this trial the subject was deemed compliant if they consumed >80% of the high-fat standard breakfast.
The subjects in the 24-h baseline and in the fasted condition Period remained fasted up to 4 h post-dose and were offered a standardized meal to be taken between 4.00 and 5.00 h post-dose. Subjects in the fed condition were fasted overnight and received a high-fat standard breakfast 30 minutes pre-dose and then remained fasted for 4.00 to 5.00 h post-dose when they received a standardized meal.
Venous blood samples were withdrawn via an indwelling cannula or by venipuncture according to the time schedule presented in Table 5 Table, Table 6, and Table 7.
Blood samples of approximately 4 mL were collected into 4 mL BD Vacutainer Plastic K2EDTA Tubes with Lavender Hemogard Closure, and was gently inverted approximately 8 times. The tubes were then immediately stored on ice and processed within 60 min of collection by centrifugation at 1500 g for 10 min at 2 to 8° C. The resultant plasma was separated equally into 2 aliquots and transferred to 2 mL appropriately labelled primary and backup polypropylene cryovials.
Actual elapsed time from dosing was to be used for the final plasma PK parameter calculations after database lock.

[2] = Population pharmacokinetic model and simulations of PB and PAA (healthy subjects and ALS patients); parameters: species or system human; settings: for Cmax, Mean: from individual Bayesian (post hoc) parameter estimates; for Cmax, 2.5th percentile / Cmax, 97.5th percentile / Cmax, Geometric mean / Cmax, Median: post hoc Bayesian estimates; for V, volume of distribution of PAA: population PK
Text: The order of administration with and without food was randomly assigned. […] Subjects were advised to take the drug before a meal. […] No inter-occasion variability (IOV) was included.

[3] = single dose AMX0035 fasted, Geometric Mean
[4] = single dose AMX0035 fasted, Max
[5] = single dose AMX0035 fasted, Median
[6] = single dose AMX0035 fasted, Min
[7] = single dose AMX0035 fed, Geometric Mean
[8] = single dose AMX0035 fed, Median

O=C(O)Cc1ccccc1 [PAA, phenylacetate]
T1/2 ([1]; Table 1: fasted, geometric mean (CV%), terminal half-life): 48.8 min | Tmax ([1]; Table 1: fasted, median (range)): 150 min | AUC(0-inf) ([1]; both sexes, human, in vivo, Table 1: fasted, geometric mean (CV%), read-out: AUC(0-inf)): 83400 ng·h/mL | half-life ([1]; both sexes, human, in vivo, Table 1: fasted, geometric mean (CV%), terminal half-life, read-out: T1/2 (converted)): 48.6 min | half-life ([1]; both sexes, human, in vivo, fasted, read-out: elimination half-lives (range)): 41.4 to 57 min | half-life ([1]; both sexes, human, in vivo, fed, read-out: elimination half-lives (range)): 36 to 62.4 min | Cmax ([1]; both sexes, human, in vivo, po, Table 1: single oral dose ALBRIOZA, healthy subjects, fasted, geometric mean (CV%), read-out: Cmax): 26400 ng/mL | AUC(0-inf) ([1]; both sexes, human, in vivo, po, single oral AMX0035, Fasted (N = 13), healthy subjects, PK analysis subset, read-out: AUC(0-inf), Adj Geo Mean): 84800 ng·h/mL | AUC(0-t) ([1]; both sexes, human, in vivo, po, single oral AMX0035, Fasted (N = 13), healthy subjects, PK analysis subset, read-out: AUC(0-last), Adj Geo Mean): 83200 ng·h/mL | Cmax ([1]; both sexes, human, in vivo, po, single oral AMX0035, Fasted (N = 13), healthy subjects, PK analysis subset, read-out: Cmax, Adj Geo Mean): 26600 ng/mL | AUC(0-inf) ([1]; both sexes, human, in vivo, po, single oral AMX0035, Fed (N = 13), healthy subjects, PK analysis subset, read-out: AUC(0-inf), Adj Geo Mean): 59800 ng·h/mL | AUC(0-t) ([1]; both sexes, human, in vivo, po, single oral AMX0035, Fed (N = 13), healthy subjects, PK analysis subset, read-out: AUC(0-last), Adj Geo Mean): 58200 ng·h/mL | Cmax ([1]; both sexes, human, in vivo, po, single oral AMX0035, Fed (N = 13), healthy subjects, PK analysis subset, read-out: Cmax, Adj Geo Mean): 16100 ng/mL | Cmax ([1]; both sexes, human, in vivo, single dose AMX0035, healthy subjects, fasting, read-out: mean Cmax): 26400 ng/mL | AUC(0-inf) ([1]; both sexes, human, in vivo, single dose AMX0035 fasted, Geometric Mean, read-out: AUC(0-inf)): 83400 ng·h/mL | AUC(0-t) ([1]; both sexes, human, in vivo, single dose AMX0035 fasted, Geometric Mean, read-out: AUC(0-last)): 81800 ng·h/mL | Cmax ([1]; both sexes, human, in vivo, single dose AMX0035 fasted, Geometric Mean, read-out: Cmax): 26400 ng/mL | half-life ([1]; both sexes, human, in vivo, single dose AMX0035 fasted, Geometric Mean, read-out: T1/2 (converted)): 48.8 min | AUC(0-inf) ([1]; both sexes, human, in vivo, single dose AMX0035 fasted, Median, read-out: AUC(0-inf)): 80700 ng·h/mL | AUC(0-t) ([1]; both sexes, human, in vivo, single dose AMX0035 fasted, Median, read-out: AUC(0-last)): 79300 ng·h/mL | Cmax ([1]; both sexes, human, in vivo, single dose AMX0035 fasted, Median, read-out: Cmax): 27700 ng/mL | half-life ([1]; both sexes, human, in vivo, single dose AMX0035 fasted, Median, read-out: T1/2 (converted)): 50 min | AUC(0-inf) ([1]; both sexes, human, in vivo, single dose AMX0035 fed, Geometric Mean, read-out: AUC(0-inf)): 58300 ng·h/mL | AUC(0-t) ([1]; both sexes, human, in vivo, single dose AMX0035 fed, Geometric Mean, read-out: AUC(0-last)): 56700 ng·h/mL | Cmax ([1]; both sexes, human, in vivo, single dose AMX0035 fed, Geometric Mean, read-out: Cmax): 15900 ng/mL | half-life ([1]; both sexes, human, in vivo, single dose AMX0035 fed, Geometric Mean, read-out: T1/2 (converted)): 46.8 min | AUC(0-inf) ([1]; both sexes, human, in vivo, single dose AMX0035 fed, Median, read-out: AUC(0-inf)): 54500 ng·h/mL | AUC(0-t) ([1]; both sexes, human, in vivo, single dose AMX0035 fed, Median, read-out: AUC(0-last)): 53100 ng·h/mL | Cmax ([1]; both sexes, human, in vivo, single dose AMX0035 fed, Median, read-out: Cmax): 16000 ng/mL | half-life ([1]; both sexes, human, in vivo, single dose AMX0035 fed, Median, read-out: T1/2 (converted)): 47 min | Tmax ([1]; both sexes, human, in vivo, non parametric analysis, PK analysis subset, Fasted, read-out: Tmax Median): 150 min | peak exposure to metabolite as % of that for parent ([1]; fasted): approximately 14% | time from which plasma concentrations were evident ([1]; fasted): 0.25 h | total exposure to metabolite based on AUC(0-inf) as % of that for parent ([1]; fasted): approximately 35% | peak exposure to metabolite as % of that for parent ([1]; fed): approximately 34% | total exposure to metabolite based on AUC(0-inf) as % of that for parent ([1]; fed): approximately 48% | Frel AUC(0-inf) ([1]; Geometric Mean): 70.606% | Frel AUC(0-last) ([1]; Geometric Mean): 70.024% | Frel Cmax ([1]; Geometric Mean): 60.480% | Frel AUC(0-inf) ([1]; Max): 91.45% | Frel AUC(0-last) ([1]; Max): 91.27% | Frel Cmax ([1]; Max): 86.29% | Frel AUC(0-inf) ([1]; Median): 70.563% | Frel AUC(0-last) ([1]; Median): 69.952% | Frel Cmax ([1]; Median): 58.065% | Frel AUC(0-inf) ([1]; Min): 58.16% | Frel AUC(0-last) ([1]; Min): 57.31% | Frel Cmax ([1]; Min): 45.73% | Tmax Median ([1]; non parametric analysis, PK analysis subset, Fed): 150 min | AUCextrap [1, 3]: 1.779% | Lambda-z [1, 3]: 0.8527 h⁻¹ | AUC(0-inf) [1, 4]: 142000 ng·h/mL | AUC(0-last) [1, 4]: 141000 ng·h/mL | AUCextrap [1, 4]: 3.18% | Lambda-z [1, 4]: 0.9999 h⁻¹ | T1/2 [1, 4]: 57 min | Tmax [1, 4]: 210 min | AUCextrap [1, 5]: 1.963% | Lambda-z [1, 5]: 0.8310 h⁻¹ | Tmax [1, 5]: 150 min | AUC(0-inf) [1, 6]: 45200 ng·h/mL | AUC(0-last) [1, 6]: 43800 ng·h/mL | AUCextrap [1, 6]: 1.06% | Lambda-z [1, 6]: 0.7287 h⁻¹ | T1/2 [1, 6]: 41.4 min | Tmax [1, 6]: 90 min | AUCextrap [1, 7]: 2.485% | Lambda-z [1, 7]: 0.8886 h⁻¹ | AUC(0-inf) ([1]; single dose AMX0035 fed, Max): 130000 ng·h/mL | AUC(0-last) ([1]; single dose AMX0035 fed, Max): 128000 ng·h/mL | AUCextrap ([1]; single dose AMX0035 fed, Max): 4.13% | Lambda-z ([1]; single dose AMX0035 fed, Max): 1.1486 h⁻¹ | T1/2 ([1]; single dose AMX0035 fed, Max): 62.4 min | Tmax ([1]; single dose AMX0035 fed, Max): 270 min | AUCextrap [1, 8]: 2.680% | Lambda-z [1, 8]: 0.8899 h⁻¹ | Tmax [1, 8]: 150 min | AUC(0-inf) ([1]; single dose AMX0035 fed, Min): 31900 ng·h/mL | AUC(0-last) ([1]; single dose AMX0035 fed, Min): 30600 ng·h/mL | AUCextrap ([1]; single dose AMX0035 fed, Min): 1.26% | Lambda-z ([1]; single dose AMX0035 fed, Min): 0.6696 h⁻¹ | T1/2 ([1]; single dose AMX0035 fed, Min): 36 min | Tmax ([1]; single dose AMX0035 fed, Min): 120 min | higher exposure in females compared to males ([1]; single oral dose, fed and fasted): ~31% | Cmax, Mean ([2]; ALS patients, Fasting): 24100 ng/mL | Cmax, 2.5th percentile ([2]; ALS patients, Fasting): 10100 ng/mL | Cmax, 97.5th percentile ([2]; ALS patients, Fasting): 44200 ng/mL | Cmax, Geometric mean ([2]; ALS patients, Fasting): 22300 ng/mL | Cmax, Median ([2]; ALS patients, Fasting): 23800 ng/mL | Cmax, Mean ([2]; ALS patients, Fed): 16600 ng/mL | Cmax, 2.5th percentile ([2]; ALS patients, Fed): 8160 ng/mL | Cmax, 97.5th percentile ([2]; ALS patients, Fed): 25300 ng/mL | Cmax, Geometric mean ([2]; ALS patients, Fed): 15600 ng/mL | Cmax, Median ([2]; ALS patients, Fed): 16900 ng/mL | estimated steady-state mean Cmax ([2]; ALS patients, based on population PK): 24100 ng/mL | V, volume of distribution of PAA ([2]; Bootstrap Median): 56.1 L | V, volume of distribution of PAA ([2]; Final Model mean estimate): 56.3 L
